Experiments:
[1] = test system: WI-38; assay: Cytotoxicity against normal cell line WI-38; format: cell-based; settings: Homo sapiens, 24 h, mean ± standard error
From the text: (§1) According to previous reports regarding the cytotoxic features of a numerous array of benzochromene scaffolds, compounds 4a − z have been elected to explore their cytotoxic ability against three tumour cell lines, including HCT-116 (colon cancer), MCF-7 (breast cancer), and HepG-2 (hepatocellular cancer), and employing the 3–(4,5-dimethylthiazol-2-yl)-2,5-diphenyl tetrazolium bromide (MTT) colorimetric assay as described in literature. Judges choice of such cell lines has been stimulated by the acknowledged antitumor performance of a substantial number of 1H-benzo[f]chromene and 4H-benzo[h]chromene molecules towards the asserted cell lines. […] Moreover, benzochromene derivatives with highly cytotoxic behaviour, 4a − d, 4g, 4i, 4k, 4n, 4q, 4 u, and 4w, are subjected to further inspection against ADR-resistant human breast cancer cells (MCF-7/ADR) and the two normal cell lines, HFL-1 and human diploid fibroblasts (WI-38). […] Also, the results are illustrated in Table 4.
(§2) The cytotoxic activity was appraised, using the 3–(4,5-dimethylthiazol-2-yl)-2,5-diphenyl-tetrazolium bromide (MTT) colorimetric assay, as reported previously[57] and ELISA assay for MCF-7/ADR[75].

[2] = test system: MCF-7; assay: MTT cell viability assay, MCF-7; format: cell-based; settings: Homo sapiens, MCF7, 24 h incubation, mean ± standard error
From the text: as §1
(§3) The tumour cell lines MCF-7, HepG-2, and […] were obtained from the American Type Culture Collection (ATCC, Rockville, MD). The cells were grown on RPMI-1640 medium supplemented with 10% inactivated foetal calf serum and 50 µg/mL gentamycin. The cells were maintained at 37 °C in a humidified atmosphere with 5% CO2 and were subculture two to three times a week.
as §2

[3] = test system: MCF-7/ADR; assay: Cytotoxicity against ADR-resistant breast cancer cells; format: cell-based, human; settings: 24 h exposure, mean ± standard error
From the text: as §1, §2

[4] = test system: HCT-116; assay: MTT cell viability assay, HCT-116; format: cell-based; settings: Homo sapiens, 24 h incubation, mean ± standard error
From the text: as §1, §2

[5] = test system: HepG-2; assay: MTT cell viability assay, HepG-2; format: cell-based; settings: Homo sapiens, HepG2, 24 h incubation, mean ± standard error
From the text: as §1, §3, §2

[6] = test system: HFL-1; assay: Cytotoxicity against normal cell line HFL-1; format: cell-based; settings: Homo sapiens, HFL1, 24 h, mean ± standard error
From the text: as §1, §2

[7] = Homo sapiens, NCI/ADR-RES, 24 h

Structure (SMILES)	IC50 [1]	IC50 [2]	IC50 [3, 7]	IC50 [4]	melting point	IC50 [5]	IC50 [6]	IC50 [3]
COc1ccc2ccc3c(c2c1)C(c1ccc(F)cc1)C(C#N)=C(N)O3 (centres unmarked) [4a, 3-Amino-1–(4-fluorophenyl)-9-methoxy-1H-benzo[f]chromene-2-carbonitrile]	56.7 ± 1.1 µM	16.5 ± 0.1 µM	24.4 ± 1.2 µM	6.4 ± 0.1 µM	267 to 268 °C	11.3 ± 0.1 µM	45.1 ± 0.2 µM	–
COc1ccc2ccc3c(c2c1)C(c1ccccc1Br)C(C#N)=C(N)O3 (centres unmarked) [4e, 3-Amino-1–(2-bromophenyl)-9-methoxy-1H-benzo[f]chromene-2-carbonitrile]	59.1 ± 1.1 µM	8.3 ± 0.6 µM	–	5.9 ± 0.4 µM	273 to 275 °C	4.9 ± 0.2 µM	49.5 ± 1.1 µM	–
COc1ccc2ccc3c(c2c1)C(c1cccc(Br)c1)C(C#N)=C(N)O3 (centres unmarked) [4f, 3-Amino-1–(3-bromophenyl)-9-methoxy-1H-benzo[f]chromene-2-carbonitrile]	–	69.2 ± 0.3 µM	–	11.5 ± 1.1 µM	263 to 265 °C	63.6 ± 3.2 µM	–	–
COc1ccc2ccc3c(c2c1)C(c1ccc(Br)cc1)C(C#N)=C(N)O3 (centres unmarked) [4g, 3-Amino-1–(4-bromophenyl)-9-methoxy-1H-benzo[f]chromene-2-carbonitrile]	69 ± 1.1 µM	5.6 ± 0.1 µM	19.6 ± 1 µM	2.2 ± 0.1 µM	252 to 253 °C	2 ± 0.1 µM	65.3 ± 0.1 µM	–
COc1ccc2ccc3c(c2c1)C(c1ccc(I)cc1)C(C#N)=C(N)O3 (centres unmarked) [4h, 3-Amino-1–(4-iodophenyl)-9-methoxy-1H-benzo[f]chromene-2-carbonitrile]	–	48.4 ± 0.1 µM	–	27.7 ± 0.3 µM	227 to 228 °C	39.2 ± 0.2 µM	–	–
COc1ccc2ccc3c(c2c1)C(c1ccc(C)cc1)C(C#N)=C(N)O3 (centres unmarked) [4i, 3-Amino-1–(4-methylphenyl)-9-methoxy-1H-benzo[f]chromene-2-carbonitrile]	61.7 ± 0.1 µM	7 ± 0.1 µM	42.8 ± 2.4 µM	2.9 ± 0.1 µM	245 to 246 °C	8.8 ± 0.2 µM	71.6 ± 0.3 µM	–
COc1ccc2ccc3c(c2c1)C(c1ccc(C(F)(F)F)cc1)C(C#N)=C(N)O3 (centres unmarked) [4j, 3-Amino-1–(4-trifluoromethylphenyl)-9-methoxy-1H-benzo[f]chromene-2-carbonitrile]	–	26.8 ± 1.8 µM	–	20.2 ± 1.1 µM	212 to 214 °C	5.3 ± 0.1 µM	–	–
COc1ccc2ccc3c(c2c1)C(c1c(F)cccc1F)C(C#N)=C(N)O3 (centres unmarked) [4l, 3-Amino-1–(2,6-difluorophenyl)-9-methoxy-1H-benzo[f]chromene-2-carbonitrile]	–	15.4 ± 0.2 µM	–	77.7 ± 0.3 µM	305 to 306 °C	28.5 ± 0.4 µM	–	–
COc1ccc2ccc3c(c2c1)C(c1cccc(Cl)c1Cl)C(C#N)=C(N)O3 (centres unmarked) [4m, 3-Amino-1–(2,3-dichlorophenyl)-9-methoxy-1H-benzo[f]chromene-2-carbonitrile]	–	9.1 ± 0.2 µM	–	42 ± 0.2 µM	310 to 311 °C	11.8 ± 0.2 µM	–	–
COc1ccc2ccc3c(c2c1)C(c1ccc(Cl)cc1Cl)C(C#N)=C(N)O3 (centres unmarked) [4n, 3-Amino-1–(2,4-dichlorophenyl)-9-methoxy-1H-benzo[f]chromene-2-carbonitrile]	61.9 ± 0.3 µM	1.8 ± 0.1 µM	10.9 to 15.5 µM	1.7 ± 0.2 µM	261 to 262 °C	7.3 ± 0.2 µM	71.7 ± 0.1 µM	15.5 ± 0.2 µM
COc1ccc2ccc3c(c2c1)C(c1cc(Cl)ccc1Cl)C(C#N)=C(N)O3 (centres unmarked) [4o, 3-Amino-1–(2,5-dichlorophenyl)-9-methoxy-1H-benzo[f]chromene-2-carbonitrile]	–	3.8 ± 0.3 µM	–	8.3 ± 0.2 µM	268 to 269 °C	46.6 ± 0.1 µM	–	–
COc1ccc2ccc3c(c2c1)C(c1c(Cl)cccc1Cl)C(C#N)=C(N)O3 (centres unmarked) [4p, 3-Amino-1–(2,6-dichlorophenyl)-9-methoxy-1H-benzo[f]chromene-2-carbonitrile]	–	41.5 ± 0.1 µM	–	18.9 ± 0.2 µM	321 to 322 °C	25.9 ± 0.3 µM	–	–
COc1ccc2ccc3c(c2c1)C(c1cc(Br)ccc1Br)C(C#N)=C(N)O3 (centres unmarked) [4r, 3-Amino-1–(2,5-dibromophenyl)-9-methoxy-1H-benzo[f]chromene-2-carbonitrile]	33.9 ± 0.4 µM	4.9 ± 0.5 µM	–	5.3 ± 0.4 µM	260 to 262 °C	6.8 ± 0.5 µM	38.1 ± 0.2 µM	–
COc1ccc2ccc3c(c2c1)C(c1cc(Br)cc(Br)c1)C(C#N)=C(N)O3 (centres unmarked) [4s, 3-Amino-1–(3,5-dibromophenyl)-9-methoxy-1H-benzo[f]chromene-2-carbonitrile]	–	13.6 ± 0.2 µM	–	15 ± 2.6 µM	268 to 270 °C	13.4 ± 1.1 µM	–	–
COc1ccc2ccc3c(c2c1)C(c1c(F)cccc1Cl)C(C#N)=C(N)O3 (centres unmarked) [4t, 3-Amino-1–(2-chloro-6-fulorophenyl)-9-methoxy-1H-benzo[f]chromene-2-carbonitrile]	–	100 ± 1.3 µM	–	96.5 ± 2 µM	292 to 294 °C	48.1 ± 1.3 µM	–	–
COc1ccc2ccc3c(c2c1)C(c1ccc(C(F)(F)F)cc1F)C(C#N)=C(N)O3 (centres unmarked) [4u]	60.3 ± 0.1 µM	0.2 µM	19.7 ± 0.8 µM	14.7 ± 2.3 µM	237 to 239 °C	10.6 ± 0.9 µM	55.3 ± 0.1 µM	–
COc1ccc(C2C(C#N)=C(N)Oc3ccc4ccc(OC)cc4c32)c(OC)c1 (centres unmarked) [4v, 3-Amino-1–(2,4-dimethoxyphenyl)-9-methoxy-1H-benzo[f]chromene-2-carbonitrile]	–	100 ± 0.2 µM	–	49.9 ± 0.5 µM	218 to 220 °C	93.2 ± 0.2 µM	–	–
COc1ccc2ccc3c(c2c1)C(c1ccc(OC)c(OC)c1OC)C(C#N)=C(N)O3 (centres unmarked) [4x, 3-Amino-1–(2,3,4-trimethoxyphenyl)-9-methoxy-1H-benzo[f]chromene-2-carbonitrile]	–	96.1 ± 0.6 µM	–	36.6 ± 0.1 µM	239 to 240 °C	59.7 ± 0.3 µM	–	–
COc1ccc2ccc3c(c2c1)C(c1cc(OC)c(OC)c(OC)c1)C(C#N)=C(N)O3 (centres unmarked) [4y, 3-Amino-1–(3,4,5-trimethoxyphenyl)-9-methoxy-1H-benzo[f]chromene-2-carbonitrile]	29.9 ± 0.4 µM	26.1 ± 0.1 µM	–	15.4 ± 0.1 µM	260 to 261 °C	8.8 ± 0.2 µM	34.1 ± 0.2 µM	–
COc1ccc2ccc3c(c2c1)C(c1cc(Br)cc(Br)c1OC)C(C#N)=C(N)O3 (centres unmarked) [4z, 3-Amino-1–(3,5-dibromo-2-methoxyphenyl)-9-methoxy-1H-benzo[f]chromene-2-carbonitrile]	39.6 ± 0.4 µM	5.8 ± 0.04 µM	–	6.8 ± 0.1 µM	263 to 264 °C	3.5 ± 0.2 µM	33.3 ± 0.1 µM	–
CC[C@]1(O)C[C@@H]2CN(CCc3c([nH]c4ccccc34)[C@@](C(=O)OC)(c3cc4c(cc3OC)N(C)[C@H]3[C@@](O)(C(=O)OC)[C@H](OC(C)=O)[C@]5(CC)C=CCN6CC[C@]43[C@@H]65)C2)C1 [Vinblastine, reference compound]	–	7.5 ± 0.03 µM	–	3.2 ± 0.1 µM	–	5.7 ± 0.1 µM	–	–
